Reference: publication PMC4595834, “Comparison of carbon-sulfur and carbon-amine bond in therapeutic drug: 4β-S-aromatic heterocyclic podophyllum derivatives display antitumor activity” (Scientific Reports, 2015)

What was measured:
HeLa cells [1] = assay: Flow cytometry cell cycle analysis in HeLa cells; format: cell-based, human; details: for G2/M phase arrest: 0.1 μM; for percentage of G2/M phase cells: 1 μM; for percentage of G2/M phase cells / percentage of G2/M phase cells (maximum): 48 h; for percentage of G2/M phase cells (maximum): 5 μM
Protocol: (§1) For the cell cycle analysis, HeLa cells were treated with test compounds for 6, 12, 24 and 48 h at 37 °C in 6-well plates. Appropriate controls, in which cells were mock-treated by DMSO (<1%) for the same durations, were also set up. After being treated, all cells were trypsinized and collected, washed twice with PBS, added with 4 °C 70% ethanol (10 mL) and stored overnight at 4 °C. After this, cells were spun down at 1500 rpm for 5 min, washed once with PBS, and then treated with the mixture of 10 μL RNase (10 mg/mL), 50 μL propidium iodide (1 mg/mL) and 940 μL 1 × PBS, incubated at room temperature for 30 min in the dark. The stained cells were analyzed by flow cytometry. The result was analyzed with ModFit LT^TM 3.2 version software. For the apoptosis determination, after 6, 12, 24 and 48 h treatment with test compounds, HeLa cells were harvested, re-suspend in 500 μL annexin-binding buffer (10mM HEPES, 140 mM NaCl, 2.5 mM CaCl2, pH 7.4) at the cell density of about 10^6 cells/mL and stained with 5 μL annexin V and 5 μL propidium iodide for 15 min at room temperature. Changes in intracellular ROS levels were determined by measuring the oxidative conversion of cell permeable 2′,7′-dichlorofluorescein diacetate (DCFH-DA) to fluorescent di-chlorofluorescein (DCF) in flow cytometry (BD Accuri C6). Cells in 6-well culture dishes were incubated with DMEM for 6, 12, 24 and 48 h in the absence or presence of test compounds. The cells were washed with DMEM and incubated with DCFH-DA (10 μM) at 37 °C for 30 min. Then DCF fluorescence of 10,000 cells was detected by flow cytometry.

BGC-823 cells = assay: MTT cytotoxicity assay, BGC-823; format: cell-based, human; details: for IC50: Homo sapiens, BGC-823, MTT, drug exposure 48 h, mean ± SD (n = 3), read-out: Cytotoxic activity (IC50) BGC-823
Protocol: (§2) Cytotoxicity of the podophyllum derivatives were determined by reading the absorbance at 492 nm on a multiplate reader (Thermo Fisher Scientific, Multiskan MK3). Cell cycle analysis and apoptosis analysis were analyzed by flow cytometry (Accuri C6, BD). Immunofluorescence images were recorded using laser scanning microscope (Perkin-Elmer & Olympus, UltraView VoX & Ix81). The gel for the decatenation of kDNA by Topoisomerase II study was photographed with UV illumination, Tanon 1600 (Tanon Science & Technology Co., Ltd., Shanghai). The nitrocellulose blotting membrane for western blot analysis was visualized using X-ray film processor and X-ray film, Fujifilm SUPER RX-N-C.
(§3) Cytotoxicity assay was performed on human lung adenocarcinoma epithelial cell line (A549), henrietta lacks strain of cancer cells (HeLa), human gastric carcinoma cell line (BGC 823), and normal human hepatocyte cell line (HL-7702). Cells (3500–13,000) in a 100 μL culture medium per well were seeded into 96-well microtest plates (Falcon, CA). A549 cell lines, HeLa cell lines and HL-7702 cell lines were cultured in DMEM supplemented with 10% CS, 100 mg/L penicillin G, 100 mg/L streptomycin. BGC 823 cell lines were cultured in RPMI medium 1640 supplemented with 10% CS, 100 mg/L penicillin G, and 100 mg/L streptomycin. The cells were incubated at 37 °C, in a humidified atmosphere with 5% CO2 for 48 h. For all cell lines, the microculture tetrazolium [3-(4, 5-dimethylthiazol-2-yl)-2, 5-diphenyltetrazolium bromide, MTT; Sigma, St. Louis, MO] assay was performed to measure the cytotoxic effects. Drug stock solutions (the each drug concentration was 0.5, 1, 10, 20, 50, 100, 200, and 500 μM, respectively) were prepared in DMSO and the final solvent concentration was ≤ 2% DMSO (v/v), a concentration without effect on cell replication. Initial seeding densities varied among the cell lines to ensure a final absorbance reading in control (untreated) cultures in the range 0.6–0.8 A492 units. Drug exposure was for 2 days, and the IC50 value, the drug concentration that reduced the absorbance by 50%, was interpolated from dose-response data. Each test was performed in triplicate, and absorbance readings varied no more than 5%. Data presented as means ± standard deviation (SD). Statistical analyses were performed by the analysis of variance (ANOVA). All statistical analyses were performed using Origin version 8.0 ([…], OriginLab Corp., Northampton, MA, USA). Sigmoidal dose responses and non-linear regression analyses were undertaken to identify half-maximal concentrations for each of the drugs. To evaluate differences in IC50 concentrations, analysis of variance combined with Tukey’s multiple range test was used.

[2] = MTT cytotoxicity assay, normal hepatocyte HL-7702; format: cell-based; details: HL-7702 cells (normal hepatocyte cell line), normal human hepatocyte cell line, drug exposure 48 h, mean ± SD (n = 3), read-out: Cytotoxic activity (IC50) HL-7702
Protocol: as §2, §3

HeLa cells [3] = assay: Western blot of apoptosis pathway proteins in HeLa cells; format: cell-based, human; details: 1 μM; for apoptotic pathways activated (BimEL, caspase-9, -8, -3, PARP): 12–48 h; for activation of ATM, ATR, caspase-8, 9 and 3: 0-48 h
Protocol: Cells were lysed by adding 100 μL of RIPA buffer (50 mM Tris, pH 8.0, 150 mM NaCl, 1% TX-100, 0.5% sodium deoxycholate, 0.1% SDS) with 1% Protease Inhibitor PMSF. Each sample was then vigorously vortexed twice for 15 seconds, with a 30-minute incubation on ice following each agitation. The cellular debris was pelleted (12,000 rpm, 10 min), and then 100 μL of the protein suspension was transferred to fresh 0.5 mL tubes. The protein levels were quantified using a standard BCA (Thermo Scientific), after which the samples were diluted with deionized water to achieve equal protein concentrations for all samples. Prior to analyzing the samples, 5 × Loading buffer (350 mM Tris, pH 6.8, 12% SDS, 0.012% bromophenol blue, 47% glycerol) with 5% β-mercaptoethanol was added to each sample to achieve a final 1 × concentration, after which the samples were incubated at 95 °C for 10 minutes to denature the protein samples. 20–30 μg of protein was added to and run on a 15-well 4–20% Tris-HCl gel. The gel was equilibrated buffer (39 mM glycine, 48 mM, 0.037 g/L SDS, 200 mL/L methanol) for 5 minutes, then the protein were transferred to a PVDF membrane, which was incubated with 5% fetal bovine serum in TBST (20 mM Tris-HCl, pH 8.0, 150 mM, 0.5 mL/L Tween-20) for 1 h to block non-specific binding, and then probed for the primary antibody at a 1:1000 dilution with a blocking agent in TBST for 1 h at room temperature. The blot was washed with TBST, and then probed with a secondary antibody in TBST for 1 hour at room temperature. The blot was washed with TBST, and then The ECL detection kit (Millipore) was added to catalyze oxidation of luminol to emit chemiluminescence, and the membrane was visualized using X-ray film processor and X-ray film (Fujifilm SUPER RX-N-C).

A549 cells = assay: MTT cytotoxicity assay, A549; format: cell-based, human; details: for IC50: Homo sapiens, A549, 48 h, MTT, drug exposure 48 h, mean ± SD (n = 3), read-out: Cytotoxic activity (IC50) A549
Protocol: as §2, §3

HeLa cells [4] = assay: MTT cytotoxicity assay, HeLa; format: cell-based, human; details: for IC50: Homo sapiens, HeLa, MTT, drug exposure 48 h, mean ± SD (n = 3), read-out: Cytotoxic activity (IC50) HeLa; for IC50 fold difference vs the corresponding C-NH compound (1N or 1′N): HeLa cells
Protocol: as §2, §3

HeLa cells [5] = assay: Flow cytometry ROS (DCFH-DA) in HeLa cells; format: cell-based, human; details: for fluorescence intensity of ROS: 10 μM
Protocol: as §1

Topoisomerase II = target: T1, Topoisomerase II (Homo sapiens, UniProt P11388); assay: kDNA decatenation assay (Topoisomerase II inhibition); format: biochemical; details: 100 μM
T1 construct: purchased TopoGEN Inc., USA 2000H
Protocol: Kinetoplast DNA (kDNA) is a catenated network of mitochondrial DNA seen in trypanosomes.
Topoisomerase II activity was determined using kit (TopoGEN Inc., USA, Cat no. 2000H). […] Next, 4 U of topoisomerase II was added and the reaction was allowed to proceed for 60 min at 37 °C. The reaction was stopped by the addition of 1/10 volume of 1 mg/mL proteinase K and incubated for 15 min at 37 °C. The reaction was quenched via the addition of loading buffer (350 mM Tris, pH 6.8, 12% SDS, 0.012% bromophenol blue, 47% glycerol) and was then analyzed by electrophoresis on a 1% agarose gel in TBE buffer (89 mM Tris, 89 mM borate, and 2 mM Na-EDTA, pH 8.3) for 0.5 h at 140 V. The gel was visualized under UV illumination and photographed on an Alpha Imager.

[6] = before the 48 h change (24 h induction)

T1 sequence (P11388 whole entry): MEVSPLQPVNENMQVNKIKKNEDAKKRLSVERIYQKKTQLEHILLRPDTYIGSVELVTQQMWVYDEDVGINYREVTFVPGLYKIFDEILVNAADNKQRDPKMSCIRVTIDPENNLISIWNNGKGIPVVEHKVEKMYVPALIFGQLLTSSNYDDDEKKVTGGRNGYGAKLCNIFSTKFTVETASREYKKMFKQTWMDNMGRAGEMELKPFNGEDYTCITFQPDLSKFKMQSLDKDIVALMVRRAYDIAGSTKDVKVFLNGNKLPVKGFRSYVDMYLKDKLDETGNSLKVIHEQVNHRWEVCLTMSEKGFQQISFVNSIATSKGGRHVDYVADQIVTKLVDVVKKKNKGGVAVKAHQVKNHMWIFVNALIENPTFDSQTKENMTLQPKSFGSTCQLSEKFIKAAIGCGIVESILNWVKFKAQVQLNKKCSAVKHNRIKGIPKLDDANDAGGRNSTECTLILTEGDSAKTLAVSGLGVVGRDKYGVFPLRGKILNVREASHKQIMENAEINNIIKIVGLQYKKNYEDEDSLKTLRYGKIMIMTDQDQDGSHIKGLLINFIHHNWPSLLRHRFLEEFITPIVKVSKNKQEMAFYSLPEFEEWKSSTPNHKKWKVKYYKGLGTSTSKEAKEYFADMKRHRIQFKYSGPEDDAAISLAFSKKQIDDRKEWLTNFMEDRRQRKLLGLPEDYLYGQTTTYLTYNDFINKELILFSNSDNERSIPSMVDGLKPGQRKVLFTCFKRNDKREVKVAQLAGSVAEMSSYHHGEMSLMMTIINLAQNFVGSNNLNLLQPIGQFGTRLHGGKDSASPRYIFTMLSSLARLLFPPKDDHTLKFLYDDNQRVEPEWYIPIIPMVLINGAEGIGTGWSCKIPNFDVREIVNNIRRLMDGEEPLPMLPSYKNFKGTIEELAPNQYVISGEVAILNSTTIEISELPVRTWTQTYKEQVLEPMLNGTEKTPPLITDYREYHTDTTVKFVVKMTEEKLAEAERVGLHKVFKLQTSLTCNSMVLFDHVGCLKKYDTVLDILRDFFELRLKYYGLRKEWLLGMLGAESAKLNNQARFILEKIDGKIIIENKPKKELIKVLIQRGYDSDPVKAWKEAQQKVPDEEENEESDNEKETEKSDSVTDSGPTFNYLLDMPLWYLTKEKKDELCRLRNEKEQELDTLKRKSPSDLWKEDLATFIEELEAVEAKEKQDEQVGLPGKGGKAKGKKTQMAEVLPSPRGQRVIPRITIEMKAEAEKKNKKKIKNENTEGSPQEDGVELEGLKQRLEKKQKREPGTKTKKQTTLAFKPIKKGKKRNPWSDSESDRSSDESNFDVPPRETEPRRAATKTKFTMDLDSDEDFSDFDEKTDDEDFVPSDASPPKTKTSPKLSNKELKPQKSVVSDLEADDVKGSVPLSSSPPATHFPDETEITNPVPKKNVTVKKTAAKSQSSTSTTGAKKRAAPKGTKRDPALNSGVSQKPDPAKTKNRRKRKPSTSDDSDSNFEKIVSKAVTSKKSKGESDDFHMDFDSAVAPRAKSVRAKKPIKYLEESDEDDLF

| Compound | G2/M phase arrest (HeLa cells [1]) | percentage of G2/M phase cells (HeLa cells [1]) | percentage of G2/M phase cells (maximum) (HeLa cells [1]) | IC50 (BGC-823 cells) | IC50 at 48 h [2] | apoptotic pathways activated (BimEL, caspase-9, -8, -3, PARP) (HeLa cells [3]) | IC50 (A549 cells) | IC50 (HeLa cells [4]) | fluorescence intensity of ROS (HeLa cells [5]; 48 h induction, half (1S) or most (1N) of the cells) | fluorescence intensity of ROS (HeLa cells [5]; [6]) | activation of ATM, ATR, caspase-8, 9 and 3 (HeLa cells [3]) | inhibition of catalytic activity of Topo II (kDNA decatenation) (Topoisomerase II) | IC50 fold difference vs the corresponding C-NH compound (1N or 1′N) (HeLa cells [4]) | IC50 fold difference vs Compound 1N (BGC-823 cells; BGC-823 cells) | IC50 fold difference vs Compound 1N (A549 cells; A549 cells) | amount of ROS (fluorescence intensity × count of cells) improved compared with Compound 1N (HeLa cells [5]; 48 h) |
| --- | --- | --- | --- | --- | --- | --- | --- | --- | --- | --- | --- | --- | --- | --- | --- | --- |
| COc1cc([C@@H]2c3cc4c(cc3[C@@H](Nc3nc[nH]n3)[C@H]3COC(=O)[C@H]23)OCO4)cc(OC)c1OC [Compound 1N, 4β-NH-(1,2,4-trizole-3)-4-deoxy-podophyllotoxin] | did not induce the G2/M phase arrest | about 80% | 80-90% | 1.25 ± 0.13 µM | 21.2 ± 2.16 µM | only stimulated the mitochondrial apoptotic pathway | 5.33 ± 0.52 µM | 3.85 ± 0.21 µM | 10^4–10^5 | 10^5–10^6 |  |  |  |  |  |  |
| COc1cc([C@@H]2c3cc4c(cc3[C@@H](Nc3nc[nH]n3)[C@H]3COC(=O)[C@H]23)OCO4)cc(OC)c1O [Compound 1′N, 4β-NH-(1,2,4-trizole-3)-4-deoxy-4′-demethyl-podophyllotoxin] |  |  |  | 15.6 ± 0.41 µM | 38.6 ± 2.52 µM |  | 4.22 ± 0.43 µM | 4.36 ± 0.42 µM |  |  | significantly weaker signal |  |  |  |  |  |
| COc1cc([C@@H]2c3cc4c(cc3[C@@H](Sc3nc[nH]n3)[C@H]3COC(=O)[C@H]23)OCO4)cc(OC)c1O [Compound 1′S, 4β-S-(1,3,4-trizole-2)-4-deoxy-4′-demethylepipodophyllotoxin] |  |  |  | 8.38 ± 0.53 µM | 43.2 ± 1.66 µM |  | 3.85 ± 0.38 µM | 0.32 ± 0.03 µM |  |  | activation of all these proteins | nearly inhibited | 16 times |  |  |  |
| COc1cc([C@@H]2c3cc4c(cc3[C@@H](Sc3nc[nH]n3)[C@H]3COC(=O)[C@H]23)OCO4)cc(OC)c1OC [Compound 1S, 4β-S-(1,3,4-trizole-2)-4-deoxy-podophyllotoxin] | did not induce the G2/M phase arrest | about 80% | 80-90% | 0.34 ± 0.02 µM | 56.1 ± 3.54 µM | activated the mitochondrial and the death receptor apoptotic pathways |  | 0.17 ± 0.02 µM |  | 10^5–10^6 |  |  | about 29 times | ~3 times | ~6 times | 4.8 times |
| COc1cc([C@@H]2c3cc4c(cc3[C@@H](Sc3ccccn3)[C@H]3COC(=O)[C@H]23)OCO4)cc(OC)c1O [3′S, 4β-S-(pyridine-2)-4-deoxy-4′-demethyl-podophyllotoxin] |  |  |  | 10.3 ± 0.34 µM |  |  | 3.85 ± 0.35 µM | 5.6 ± 0.39 µM |  |  |  | nearly inhibited |  |  |  |  |
